Experiment [1] deals with T1, EP2 (Homo sapiens (Human), UniProt P43116). In words: Competition binding ([3H]PGE2), EP2. The following applies: HEK 293 cells stably expressing human EP2 receptors, [3H]PGE2 10 nM. As to the method: Competition binding experiments were performed in a medium containing Hank's balanced salt solution, HEPES 20 mM, pH 7.3, membranes (˜60 μg protein) or 2×10^5 cells from HEK 293 cells stably expressing human EP2 receptors, [^3H]PGE2 (10 nM) and various concentrations of test compounds in a total volume of 300 μl. Reaction mixtures were incubated at 23° C. for 60 min, and were filtered over Whatman GF/B filters under vacuum. Filters were washed three times with 5 ml ice-cold buffer containing 50 mM Tris/HCl (pH 7.3). Non-specific binding was estimated in the presence of excess unlabeled PGE2 (10 μM). Binding data fitted to the binding model for a single class of binding sites, using nonlinear regression analysis. IC50 values thus obtained were converted to Ki using the equation of Ki=(IC50/(1+[L]/KD) where [L] represents PGE2 concentration (10 nM) and KD the dissociation constant for [^3H]PGE2 at human EP2 receptors (40 nM).
T1 sequence (P43116 whole entry): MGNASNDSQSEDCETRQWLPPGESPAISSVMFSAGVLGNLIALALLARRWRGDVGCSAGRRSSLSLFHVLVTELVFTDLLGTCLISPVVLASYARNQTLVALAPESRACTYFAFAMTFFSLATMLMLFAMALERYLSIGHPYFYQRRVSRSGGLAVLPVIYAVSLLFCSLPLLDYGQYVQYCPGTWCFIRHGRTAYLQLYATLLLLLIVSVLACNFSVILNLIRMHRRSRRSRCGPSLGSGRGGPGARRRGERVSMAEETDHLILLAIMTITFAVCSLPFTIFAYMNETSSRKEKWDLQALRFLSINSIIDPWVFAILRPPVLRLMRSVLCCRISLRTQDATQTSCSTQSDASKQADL

For experiment [2], the target named is T2, EP4 (Homo sapiens (Human), UniProt P35408). Put plainly: cAMP assay, EP4. In kind it is cell-based. The following applies: HEK-EBNA cells expressing EP4. As to the method: A 384-well drug plate was prepared to contain 6 test compounds, PGE2 and cAMP in 16 serial dilutions in triplicate, using a Biomek station. HEK-EBNA cells expressing a target PG receptor subtype (EP2 or EP4) were suspended in a stimulation buffer (HBSS, 0.1% BSA, 0.5 mM IBMX and 5 mM HEPES, pH 7.4) in a density of 10^4 cells/5 microliters. The reaction was initiated by mixing 5 microliters drug dilutions with 5 microliters of HEK-EBNA cells in a well, carried out for 30 min at room temperature, and followed by the addition of 5 microliters anti-cAMP acceptor beads in the control buffer with Tween-20 (25 mM NaCl, 0.03% Tween-20, 5 mM HEPES, pH 7.4). After 30 min in the dark at room temperature, the mixtures were incubated with 15 microliters biotinylated-cAMP/streptavidin donor beads in Lysis/Detection buffer (0.1% BSA, 0.3% Tween-20 and 5 mM HEPES, pH 7.4) for 45 min at room temperature. Fluorescence changes were read using a Fusion-alpha microplate reader.
T2 sequence (P35408 whole entry): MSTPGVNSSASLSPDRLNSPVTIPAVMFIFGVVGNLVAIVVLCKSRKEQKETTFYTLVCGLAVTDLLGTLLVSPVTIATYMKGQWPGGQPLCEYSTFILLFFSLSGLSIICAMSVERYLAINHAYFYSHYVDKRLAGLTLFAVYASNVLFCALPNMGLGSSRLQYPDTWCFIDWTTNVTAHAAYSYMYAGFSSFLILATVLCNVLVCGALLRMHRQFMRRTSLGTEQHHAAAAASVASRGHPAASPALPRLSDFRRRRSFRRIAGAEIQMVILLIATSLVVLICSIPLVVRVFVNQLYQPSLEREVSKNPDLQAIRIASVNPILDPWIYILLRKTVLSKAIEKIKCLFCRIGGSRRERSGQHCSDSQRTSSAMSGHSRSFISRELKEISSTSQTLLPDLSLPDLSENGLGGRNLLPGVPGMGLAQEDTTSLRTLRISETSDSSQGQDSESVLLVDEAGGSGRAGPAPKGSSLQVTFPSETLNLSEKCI
(cAMP levels reflect the balance of adenylyl cyclase and phosphodiesterase activity.)

Experiment [3] concerns the target T2, EP4. In words: Competition binding, EP4.
The next experiment deals with hFP (Homo sapiens (Human), UniProt P43088). Put plainly: FLIPR calcium signal, hFP. The following applies: HEK-293(EBNA) cells expressing hFP. Type of experiment: cell-based. As to the method: (§1) HEK-293(EBNA) cells, stably expressing one type or subtype of recombinant human prostaglandin receptors (prostaglandin receptors expressed: hDP/Gqs5; hEP1; hEP2/Gqs5: hEP3A/Gqi5; hEP4/Gqs5; hFP; hIP; hTP), were cultured in 100 mm culture dishes in high-glucose DMEM medium containing 10% fetal bovine serum, 2 mM 1-glutamine, 250 μg/ml geneticin (G418) and 200 microgram/mL hygromycin B as selection markers, and 100 units/ml penicillin G, 100 microgram/mL streptomycin and 0.25 microgram/mL amphotericin B.
Sequence of hFP (P43088 whole entry): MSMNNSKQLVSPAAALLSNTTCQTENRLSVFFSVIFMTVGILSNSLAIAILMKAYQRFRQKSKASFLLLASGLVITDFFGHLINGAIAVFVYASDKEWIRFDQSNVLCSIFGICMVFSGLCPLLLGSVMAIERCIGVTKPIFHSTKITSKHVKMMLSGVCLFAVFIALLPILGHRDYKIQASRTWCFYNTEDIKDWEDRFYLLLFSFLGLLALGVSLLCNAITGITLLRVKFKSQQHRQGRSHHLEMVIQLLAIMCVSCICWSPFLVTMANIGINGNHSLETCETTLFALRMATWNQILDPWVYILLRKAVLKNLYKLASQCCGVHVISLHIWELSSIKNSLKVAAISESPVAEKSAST
(§2) Cells were seeded at a density of 5×10^4 cells per well in Biocoat® Poly-D-lysine-coated black-wall, clear-bottom 96-well plates (Becton-Dickinson) and allowed to attach overnight in an incubator at 37° C. Cells were then washed two times with HBSS-HEPES buffer (Hanks Balanced Salt Solution without bicarbonate and phenol red, 20 mM HEPES, pH 7.4) using a Denley Cellwash plate washer (Labsystems). […]
(§3) Cells were excited with an Argon laser at 488 nm, and emission was measured through a 510-570 nm bandwidth emission filter (FLIPR™, Molecular Devices, Sunnyvale, Calif.). […] The peak increase in fluorescence intensity was recorded for each well. […] The peak fluorescence change in each drug-containing well was then expressed relative to the controls. […]

A further experiment concerns the target hEP1 (Homo sapiens (Human), UniProt P34995). Put plainly: FLIPR calcium signal, hEP1. Type of experiment: cell-based. The following applies: HEK-293(EBNA) cells expressing hEP1. As to the method:
as §1, §2, §3

For the next experiment, the target named is hEP3A (Homo sapiens (Human), UniProt P43115). In words: FLIPR calcium signal, hEP3A. Type of experiment: cell-based. The following applies: HEK-293(EBNA) cells expressing hEP3A/Gqi5. How it is done: as §1, §2, §3
Sequence of hEP3A (P43115 whole entry): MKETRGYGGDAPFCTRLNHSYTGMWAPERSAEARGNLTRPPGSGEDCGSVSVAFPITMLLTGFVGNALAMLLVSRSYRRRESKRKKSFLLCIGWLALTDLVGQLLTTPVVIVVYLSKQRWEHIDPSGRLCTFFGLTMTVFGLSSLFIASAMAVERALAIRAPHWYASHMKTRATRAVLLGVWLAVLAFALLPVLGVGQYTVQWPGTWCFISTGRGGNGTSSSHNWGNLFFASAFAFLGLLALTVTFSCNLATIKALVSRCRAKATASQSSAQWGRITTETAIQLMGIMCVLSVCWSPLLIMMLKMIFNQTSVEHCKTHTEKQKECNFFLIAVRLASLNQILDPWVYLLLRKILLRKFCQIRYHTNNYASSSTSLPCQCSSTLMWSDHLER
The target in another experiment is hTP (Homo sapiens (Human), UniProt P21731). In words: FLIPR calcium signal, hTP. The following applies: HEK-293(EBNA) cells expressing hTP. In kind it is cell-based. As to the method:
as §1, §2, §3

The target in a further experiment is hDP (Homo sapiens (Human), UniProt Q13258). Put plainly: FLIPR calcium signal, hDP. Type of experiment: cell-based. The following applies: HEK-293(EBNA) cells expressing hDP/Gqs5. How it is done: as §1, §2, §3
Sequence of hDP (Q13258 whole entry): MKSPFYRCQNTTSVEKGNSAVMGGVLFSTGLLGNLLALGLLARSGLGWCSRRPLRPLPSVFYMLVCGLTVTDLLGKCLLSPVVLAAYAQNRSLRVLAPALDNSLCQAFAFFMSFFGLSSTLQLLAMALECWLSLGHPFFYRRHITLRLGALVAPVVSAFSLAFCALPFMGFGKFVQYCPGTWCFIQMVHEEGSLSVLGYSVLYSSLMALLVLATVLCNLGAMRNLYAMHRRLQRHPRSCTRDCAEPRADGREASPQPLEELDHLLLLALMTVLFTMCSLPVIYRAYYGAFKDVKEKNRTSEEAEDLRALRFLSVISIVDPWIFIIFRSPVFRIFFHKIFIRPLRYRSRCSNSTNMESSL
The target of experiment [4] is T1, EP2. In words: cAMP assay, EP2. Type of experiment: cell-based. As to conditions: HEK-EBNA cells expressing EP2.

“And” between values parts separate entries of the source, which are not always exact repeats. Identical values can stand only once. Bounds are passed on as bounds.

Sequence of hEP1 (P34995 whole entry): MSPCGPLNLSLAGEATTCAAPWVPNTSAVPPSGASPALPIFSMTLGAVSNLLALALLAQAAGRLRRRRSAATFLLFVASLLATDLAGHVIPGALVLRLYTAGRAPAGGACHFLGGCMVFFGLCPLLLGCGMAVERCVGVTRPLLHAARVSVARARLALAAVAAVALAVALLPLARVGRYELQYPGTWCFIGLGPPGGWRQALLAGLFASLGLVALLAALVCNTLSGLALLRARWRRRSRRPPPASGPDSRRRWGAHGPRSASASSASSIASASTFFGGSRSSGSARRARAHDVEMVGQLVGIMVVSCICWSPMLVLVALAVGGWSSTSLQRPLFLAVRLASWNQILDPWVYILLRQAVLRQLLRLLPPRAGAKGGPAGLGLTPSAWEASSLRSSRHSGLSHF
Sequence of hTP (P21731 whole entry): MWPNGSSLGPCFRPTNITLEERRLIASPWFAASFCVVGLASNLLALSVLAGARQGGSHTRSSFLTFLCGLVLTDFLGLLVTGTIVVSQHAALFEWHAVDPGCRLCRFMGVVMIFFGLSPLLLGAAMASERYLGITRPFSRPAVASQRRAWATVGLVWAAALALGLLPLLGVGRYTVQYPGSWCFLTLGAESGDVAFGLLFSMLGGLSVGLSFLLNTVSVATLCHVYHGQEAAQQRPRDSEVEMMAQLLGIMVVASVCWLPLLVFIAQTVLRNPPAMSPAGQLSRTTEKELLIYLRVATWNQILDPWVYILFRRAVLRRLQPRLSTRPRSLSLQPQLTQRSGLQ

At EP2 [1], `Cc1cc(O)ccc1-c1cccc(C(O)/C=C/[C@H]2CCC(=O)N2CCCc2ccc(C(=O)O)cc2)c1` (single isomer, unassigned) [Example 9] gave an EP2 Ki above 10000 nM. For the same compound, the EC50 (in general, the concentration giving half of the maximal effect) at EP4 [2] is 326 nM. On EP4 [3], the affinity, expressed as Ki, was 3320 nM. Further, the “EC50 against hFP” value at hFP is listed as “not active”. The “EC50 against hEP1” value at hEP1 is “not active”. Besides, the “EC50 against hEP3A” value at hEP3A is recorded as “not active”. At hTP, the “EC50 against hTP” value is reported as “not active”. For the same compound, at hDP, the “EC50 against hDP” value is “not active”.
On to `O=C(O)c1ccc(CCCN2C(=O)CC[C@@H]2/C=C/C(O)c2cccc(Br)c2)cc1` (single isomer, unassigned) [Example 2], for which the EC50 was 149 nM on EP2 [4] and 194 nM at EP4 [2]. The Ki (in general, the dissociation constant of the complex between target and ligand, obtained from inhibition or displacement) was determined as 7490 nM at EP2 [1] and 1210 nM at EP4 [3].
`Cc1cc(O)ccc1-c1cccc(C(O)/C=C/[C@H]2CCC(=O)N2CCCc2ccc(C(=O)O)cc2)c1` (single isomer, unassigned) [Example 10]: the EP2 Ki at EP2 [1] was above 10000 nM. The response at EP4 [2] was half-maximal at 3 nM (EC50). The affinity at EP4 [3], expressed as Ki, was 25 nM. Besides, the “EC50 against hFP” value at hFP is on record as “not active”. In addition, on hEP1, the “EC50 against hEP1” value was “not active”. Besides, the “EC50 against hEP3A” value at hEP3A is “not active”. Besides, on hTP, the “EC50 against hTP” value is “not active”. Also, the “EC50 against hDP” value at hDP is given as “not active”.
At EP2 [1], `CC(C)c1cc(O)ccc1-c1cccc(C(O)/C=C/[C@H]2CCC(=O)N2CCCc2ccc(C(=O)O)cc2)c1` (stereo partly drawn) [Example 30, 4-[3-(2(R)-{(1E)-3-hydroxy-3-[4′-hydroxy-2′-(propan-2-yl)biphenyl-3-yl]prop-1-en-1-yl}-5-oxopyrrolidin-1-yl)propyl]benzoic acid] came in with an EP2 Ki above 10000 nM. The concentration for a half-maximal effect (EC50) on EP4 [2] was determined as 134 nM. The compound further yielded a Ki on EP4 [3] of 582 nM.
Consider `O=C(O)c1ccc(CCCN2C(=O)CC[C@@H]2/C=C/C(O)c2ccccc2)cc1` (single isomer, unassigned) [Example 3], for which the EP2 Ki at EP2 [1] was above 10000 nM. The compound further displayed an EC50 at EP4 [2] of 9210 nM. The compound further displayed an EP4 Ki at EP4 [3] above 10000 nM.
Regarding `Cc1c(-c2cccc(C(O)/C=C/[C@H]3CCC(=O)N3CCCc3ccc(C(=O)O)cc3)c2)ccc(Cl)c1Cl` (single isomer, unassigned) [Example 22], the EP2 Ki at EP2 [1] was above 10000 nM. This compound also came in with a half-maximal effective concentration (EC50) on EP4 [2] of 35 nM. At EP4 [3], this compound gave a Ki of 2340 nM.
At EP2 [1], `CCCc1cc(Cl)ccc1-c1cccc(C(O)/C=C/[C@H]2CCC(=O)N2CCCc2ccc(C(=O)O)cc2)c1` (single isomer, unassigned) [Example 24] yielded an EP2 Ki above 10000 nM. For the same compound, the EC50 on EP4 [2] was found to be 2340 nM. Besides, the Ki at EP4 [3] was 1310 nM.
At EP2 [1], `O=C(O)c1ccc(CCCN2C(=O)CC[C@@H]2/C=C/C(O)c2cccc(-c3ccc(Cl)cc3CO)c2)cc1` (stereo partly drawn) [Example 19, 4-[3-(2(R)-{(1E)-3-[4′-chloro-2′-(hydroxymethyl)biphenyl-3-yl]-3-hydroxyprop-1-en-1-yl}-5-oxopyrrolidin-1-yl)propyl]benzoic acid] showed an EP2 Ki above 10000 nM. The EC50 on EP4 [2] was 95 nM and 165 nM. Moreover, the inhibition constant (Ki) on EP4 [3] amounted to 658 nM.
Turning to `CC(C)(C)c1cc(Cl)ccc1-c1cccc(C(O)/C=C/[C@H]2CCC(=O)N2CCCc2ccc(C(=O)O)cc2)c1` (stereo partly drawn) [Example 26, 4-(3-{2(R)-[(1E)-3-(2′-tert-butyl-4′-chlorobiphenyl-3-yl)-3-hydroxyprop-1-en-1-yl]-5-oxopyrrolidin-1-yl}propyl)benzoic acid], on EP2 [1], the EP2 Ki is above 10000 nM. Moreover, at EP4 [2], the EP4 cAMP EC50 was above 10000 nM. On EP4 [3], the Ki was found to be 8850 nM.
As to `CCCCc1cc(Cl)ccc1-c1cccc(C(O)/C=C/[C@H]2CCC(=O)N2CCCc2ccc(C(=O)O)cc2)c1` (stereo partly drawn) [Example 29, 4-(3-{2(R)-[(1E)-3-(2′-butyl-4′-chlorobiphenyl-3-yl)-3-hydroxyprop-1-en-1-yl]-5-oxopyrrolidin-1-yl}propyl)benzoic acid], the EP2 Ki on EP2 [1] was above 10000 nM. Further, the EC50 on EP4 [2] stood at 117 nM. The compound further gave a Ki on EP4 [3] of 319 nM.

The record behind these values is patent publication US9540357B1, “15-aryl prostaglandins as EP4 agonists, and methods of use thereof” (Allergan, Inc., priority 2014, dated 2017).
